# Tests used:
# Type in all cases: in vivo
# [1] = system: fall panicum; assay: Herbicidal activity test against upland field weeds (foliar treatment test); conditions: Panicum dichotomiflorum, 50 g ai/ha, scale 0-100
# How it was run: (§1)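 Greenhouse-grown plants (30±5 °C, 14/10 h light/dark) foliar hand-sprayed with compound in 50% acetone, 0.1% Tween-20 at 50 or 75 g a.i./ha. Control visually scored 0 (none) to 100 (complete) versus untreated after 14 days, or 21 days if needed.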
# [2] = system: velvetleaf; assay: as above; conditions: Abutilon theophrasti, 50 g ai/ha, scale 0-100, read-out: Foliar treatment herbicidal activity, velvet leaf
# How it was run: as §1
# [3] = system: quack grass; assay: as above; set-up: key to Foliar treatment herbicidal activity, quack grass: 0 (no control); 100 (complete control); conditions: 50 g ai/ha, scale 0-100
# How it was run: as §1
# [4] = system: soybean; assay: Phytotoxicity test for field crops (soil treatment test); set-up: key: 0 (no harm); 9 (complete withered)
# Procedure: (§2) Experimental Example 4: Phytotoxicity Test for Field Crops (Soil Treatment Test)
# (§3) Soil treatment was performed for sown crops and weeds in a square plastic pot having a surface area of 50 cm^2 filled with sterilized horticultural soil (pH 6.1, organic material 1.0%, clay 21%, silt 17%, sand 52%). As a fertilizer per pot, 0.5 g of horticultural mixed fertilizer (N:P:K=17:21:17) was treated by mixing with soil. Five kinds of crops such as rice, wheat, corn, soybean, and cotton were sown in each pot. One day after sowing, test compound solutions were made by diluting with the diluent (33% acetone, 0.1% Tween-20) so that the final treatment amount of the test compounds was 19˜300 g a.i./ha. The prepared test compound solutions were treated using a spray booth (SB6-016) at a treatment amount of 100 ml per 1 m^2 of treatment area. The treated crops were managed in greenhouse conditions (average temperature 30±5° C., light/dark=14/10 hours). External symptoms and phytotoxicity were visually investigated 10 and 20 days after treatment. In the evaluation of the phytotoxicity for the crop, the grade of 0 (no harm) to 9 (complete withered) was used. The results of Table 10 were obtained by evaluating phytotoxicity value to the untreated control.
# [5] = system: wheat; assay: as above; set-up: key: 0 (no harm); 9 (complete withered)
# Procedure: as §2, §3
# [6] = system: rice; assay: as above; set-up: key: 0 (no harm); 9 (complete withered)
# Procedure: as §2, §3
# [7] = system: corn; assay: as above; set-up: key: 0 (no harm); 9 (complete withered)
# Procedure: as §2, §3
# [8] = system: cotton; assay: as above; set-up: key: 0 (no harm); 9 (complete withered)
# Procedure: as §2, §3
# [9] = system: crabgrass; assay: Herbicidal activity test against upland field weeds (foliar treatment test); conditions: Digitaria sanguinalis, 50 g ai/ha, scale 0-100
# How it was run: as §1
# [10] = system: black nightshade; assay: as above; set-up: key to Foliar treatment herbicidal activity, black nightshade: 0 (no control); 100 (complete control); conditions: 50 g ai/ha, scale 0-100
# How it was run: as §1
# [11] = 50 g ai/ha, Soybean (10 days after treatment)
# [12] = 50 g ai/ha, Soybean (20 days after treatment)
# [13] = 100 g ai/ha, Soybean (10 days after treatment)
# [14] = 100 g ai/ha, Soybean (20 days after treatment)
# [15] = 50 g ai/ha, Wheat (10 days after treatment)
# [16] = 50 g ai/ha, Wheat (20 days after treatment)
# [17] = 100 g ai/ha, Wheat (10 days after treatment)
# [18] = 50 g ai/ha, Rice (10 days after treatment)
# [19] = 50 g ai/ha, Rice (20 days after treatment)
# [20] = 100 g ai/ha, Rice (10 days after treatment)
# [21] = 100 g ai/ha, Rice (20 days after treatment)
# [22] = 50 g ai/ha, Corn (10 days after treatment)
# [23] = 50 g ai/ha, Corn (20 days after treatment)
# [24] = 100 g ai/ha, Corn (10 days after treatment)
# [25] = 100 g ai/ha, Corn (20 days after treatment)
# [26] = 50 g ai/ha, Cotton (10 days after treatment)
# [27] = 50 g ai/ha, Cotton (20 days after treatment)
# [28] = 100 g ai/ha, Cotton (10 days after treatment)
# [29] = 100 g ai/ha, Cotton (20 days after treatment)
# [30] = 100 g ai/ha, Wheat (20 days after treatment)
smiles,measurement,setting,value
"CON(Cc1nnn(C)n1)Cc1nc(C(F)(F)F)ccc1C(=O)Nc1nnnn1C [Compound No. 2-97, 2-((methoxy((2-methyl-2H-tetrazol-5-yl)methyl)amino)methyl)-N-(1-methyl-1H-tetrazol-5-yl)-6-(trifluoromethyl)nicotinamide]",pest or weed control at 50 g/ha,[1],95%
same,pest or weed control at 50 g/ha,[2],95%
same,"Foliar treatment herbicidal activity, quack grass",[3],0
same,"Soil treatment phytotoxicity, Soybean",[4]; [11],0
same,"Soil treatment phytotoxicity, Soybean",[4]; [12],0
same,"Soil treatment phytotoxicity, Soybean",[4]; [13],0
same,"Soil treatment phytotoxicity, Soybean",[4]; [14],0
same,"Soil treatment phytotoxicity, Wheat",[5]; [15],0
same,"Soil treatment phytotoxicity, Wheat",[5]; [16],0
same,"Soil treatment phytotoxicity, Wheat",[5]; [17],0
same,"Soil treatment phytotoxicity, Rice",[6]; [18],7
same,"Soil treatment phytotoxicity, Rice",[6]; [19],9
same,"Soil treatment phytotoxicity, Rice",[6]; [20],9
same,"Soil treatment phytotoxicity, Rice",[6]; [21],9
same,"Soil treatment phytotoxicity, Corn",[7]; [22],0
same,"Soil treatment phytotoxicity, Corn",[7]; [23],0
same,"Soil treatment phytotoxicity, Corn",[7]; [24],1
same,"Soil treatment phytotoxicity, Corn",[7]; [25],0
same,"Soil treatment phytotoxicity, Cotton",[8]; [26],1
same,"Soil treatment phytotoxicity, Cotton",[8]; [27],7
same,"Soil treatment phytotoxicity, Cotton",[8]; [28],4
same,"Soil treatment phytotoxicity, Cotton",[8]; [29],8
same,pest or weed control at 50 g/ha,[9],95%
same,"Foliar treatment herbicidal activity, black nightshade",[10],100
"Cn1nnc(CSCc2nc(C(F)(F)F)ccc2C(=O)N(c2nnnn2C)S(C)(=O)=O)n1 [Compound No. 2-110, N-(1-methyl-1H-tetrazol-5-yl)-2-((((2-methyl-2H-tetrazol-5-yl)methyl)thio)methyl)-N-(methylsulfonyl)-6-(trifluoromethyl)nicotinamide]",pest or weed control at 50 g/ha,[1],70%
same,pest or weed control at 50 g/ha,[2],80%
same,"Foliar treatment herbicidal activity, quack grass",[3],0
same,"Soil treatment phytotoxicity, Soybean",[4]; [12],0
same,"Soil treatment phytotoxicity, Soybean",[4]; [14],0
same,"Soil treatment phytotoxicity, Wheat",[5]; [15],0
same,"Soil treatment phytotoxicity, Wheat",[5]; [16],0
same,"Soil treatment phytotoxicity, Wheat",[5]; [17],0
same,"Soil treatment phytotoxicity, Wheat",[5]; [30],0
same,"Soil treatment phytotoxicity, Rice",[6]; [18],0
same,"Soil treatment phytotoxicity, Rice",[6]; [19],0
same,"Soil treatment phytotoxicity, Rice",[6]; [20],0
same,"Soil treatment phytotoxicity, Rice",[6]; [21],0
same,"Soil treatment phytotoxicity, Corn",[7]; [22],0
same,"Soil treatment phytotoxicity, Corn",[7]; [23],0
same,"Soil treatment phytotoxicity, Corn",[7]; [24],0
same,"Soil treatment phytotoxicity, Corn",[7]; [25],0
same,"Soil treatment phytotoxicity, Cotton",[8]; [26],0
same,"Soil treatment phytotoxicity, Cotton",[8]; [27],0
same,"Soil treatment phytotoxicity, Cotton",[8]; [28],0
same,"Soil treatment phytotoxicity, Cotton",[8]; [29],0
same,pest or weed control at 50 g/ha,[9],70%
same,"Foliar treatment herbicidal activity, black nightshade",[10],100
"Cc1nc(COCc2nc(C(F)(F)F)ccc2C(=O)Nc2nnnn2C)nn1C [Compound No. 2-116, 2-(((1,5-dimethyl-1H-1,2,4-triazol-3-yl)methoxy)methyl)-N-(1-methyl-1H-tetrazol-5-yl)-6-(trifluoromethyl)nicotinamide]",pest or weed control at 50 g/ha,[1],80%
same,pest or weed control at 50 g/ha,[2],90%
same,"Foliar treatment herbicidal activity, quack grass",[3],0
same,"Soil treatment phytotoxicity, Wheat",[5]; [15],0
same,"Soil treatment phytotoxicity, Wheat",[5]; [16],2
same,"Soil treatment phytotoxicity, Wheat",[5]; [17],0
same,"Soil treatment phytotoxicity, Wheat",[5]; [30],0
same,"Soil treatment phytotoxicity, Rice",[6]; [18],0
same,"Soil treatment phytotoxicity, Rice",[6]; [19],3
same,"Soil treatment phytotoxicity, Rice",[6]; [20],0
same,"Soil treatment phytotoxicity, Rice",[6]; [21],2
same,"Soil treatment phytotoxicity, Corn",[7]; [22],1
same,"Soil treatment phytotoxicity, Corn",[7]; [23],4
same,"Soil treatment phytotoxicity, Corn",[7]; [24],1
same,"Soil treatment phytotoxicity, Corn",[7]; [25],3
same,"Soil treatment phytotoxicity, Cotton",[8]; [26],1
same,"Soil treatment phytotoxicity, Cotton",[8]; [27],3
same,"Soil treatment phytotoxicity, Cotton",[8]; [28],1
same,"Soil treatment phytotoxicity, Cotton",[8]; [29],2
same,pest or weed control at 50 g/ha,[9],80%
same,"Foliar treatment herbicidal activity, black nightshade",[10],100
"Cc1nc(COCc2nc(C(F)(F)F)ccc2C(=S)Nc2nnnn2C)nn1C [Compound No. 2-117, 2-(((1,5-dimethyl-1H-1,2,4-triazol-3-yl)methoxy)methyl)-N-(1-methyl-1H-tetrazol-5-yl)-6-(trifluoromethyl)pyridin-3-carbothioamide]",pest or weed control at 50 g/ha,[1],40%
same,pest or weed control at 50 g/ha,[2],90%
same,"Foliar treatment herbicidal activity, quack grass",[3],0
same,"Soil treatment phytotoxicity, Wheat",[5]; [15],0
same,"Soil treatment phytotoxicity, Wheat",[5]; [16],0
same,"Soil treatment phytotoxicity, Wheat",[5]; [17],0
same,"Soil treatment phytotoxicity, Wheat",[5]; [30],0
same,"Soil treatment phytotoxicity, Rice",[6]; [18],0
same,"Soil treatment phytotoxicity, Rice",[6]; [19],2
same,"Soil treatment phytotoxicity, Rice",[6]; [20],0
same,"Soil treatment phytotoxicity, Rice",[6]; [21],3
same,"Soil treatment phytotoxicity, Corn",[7]; [22],1
same,"Soil treatment phytotoxicity, Corn",[7]; [23],3
same,"Soil treatment phytotoxicity, Corn",[7]; [24],2
same,"Soil treatment phytotoxicity, Corn",[7]; [25],2
same,"Soil treatment phytotoxicity, Cotton",[8]; [26],0
same,"Soil treatment phytotoxicity, Cotton",[8]; [27],9
same,"Soil treatment phytotoxicity, Cotton",[8]; [28],0
same,"Soil treatment phytotoxicity, Cotton",[8]; [29],9
same,pest or weed control at 50 g/ha,[9],95%
same,"Foliar treatment herbicidal activity, black nightshade",[10],100
"Cn1nc(COCc2nc(C(F)(F)F)ccc2C(=O)Nc2nnnn2C)nc1C#N [Compound No. 2-134, 2-(((5-cyano-1-methyl-1H-1,2,4-triazol-3-yl)methoxy)methyl)-N-(1-methyl-1H-tetrazol-5-yl)-6-(trifluoromethyl)nicotinamide]",pest or weed control at 50 g/ha,[1],50%
same,pest or weed control at 50 g/ha,[2],60%
same,pest or weed control at 50 g/ha,[3],10%
same,"Soil treatment phytotoxicity, Soybean",[4]; [11],0
same,"Soil treatment phytotoxicity, Soybean",[4]; [12],0
same,"Soil treatment phytotoxicity, Soybean",[4]; [13],0
same,"Soil treatment phytotoxicity, Soybean",[4]; [14],0
same,"Soil treatment phytotoxicity, Wheat",[5]; [15],0
same,"Soil treatment phytotoxicity, Wheat",[5]; [16],0
same,"Soil treatment phytotoxicity, Wheat",[5]; [17],0
same,"Soil treatment phytotoxicity, Wheat",[5]; [30],0
same,"Soil treatment phytotoxicity, Rice",[6]; [18],1
same,"Soil treatment phytotoxicity, Rice",[6]; [19],1
same,"Soil treatment phytotoxicity, Rice",[6]; [20],5
same,"Soil treatment phytotoxicity, Rice",[6]; [21],4
same,"Soil treatment phytotoxicity, Corn",[7]; [22],0
same,"Soil treatment phytotoxicity, Corn",[7]; [23],0
same,"Soil treatment phytotoxicity, Corn",[7]; [24],0
same,"Soil treatment phytotoxicity, Corn",[7]; [25],0
same,"Soil treatment phytotoxicity, Cotton",[8]; [26],0
same,"Soil treatment phytotoxicity, Cotton",[8]; [27],1
same,"Soil treatment phytotoxicity, Cotton",[8]; [28],0
same,"Soil treatment phytotoxicity, Cotton",[8]; [29],2
same,pest or weed control at 50 g/ha,[9],80%
same,"Foliar treatment herbicidal activity, black nightshade",[10],100
"Cn1nc(COCc2nc(C(F)(F)F)ccc2C(=O)Nc2nnnn2C)nc1Br [Compound No. 2-136, 2-(((5-bromo-1-methyl-1H-1,2,4-triazol-3-yl)methoxy)methyl)-N-(1-methyl-1H-tetrazol-5-yl)-6-(trifluoromethyl)nicotinamide]",pest or weed control at 50 g/ha,[1],50%
same,pest or weed control at 50 g/ha,[2],40%
same,"Foliar treatment herbicidal activity, quack grass",[3],0
same,"Soil treatment phytotoxicity, Soybean",[4]; [11],0
same,"Soil treatment phytotoxicity, Soybean",[4]; [12],0
same,"Soil treatment phytotoxicity, Wheat",[5]; [15],0
same,"Soil treatment phytotoxicity, Wheat",[5]; [16],0
same,"Soil treatment phytotoxicity, Wheat",[5]; [17],0
same,"Soil treatment phytotoxicity, Wheat",[5]; [30],0
same,"Soil treatment phytotoxicity, Rice",[6]; [18],3
same,"Soil treatment phytotoxicity, Rice",[6]; [19],4
same,"Soil treatment phytotoxicity, Rice",[6]; [20],4
same,"Soil treatment phytotoxicity, Rice",[6]; [21],7
same,"Soil treatment phytotoxicity, Corn",[7]; [22],0
same,"Soil treatment phytotoxicity, Corn",[7]; [23],0
same,"Soil treatment phytotoxicity, Corn",[7]; [24],0
same,"Soil treatment phytotoxicity, Corn",[7]; [25],0
same,"Soil treatment phytotoxicity, Cotton",[8]; [26],0
same,"Soil treatment phytotoxicity, Cotton",[8]; [27],0
same,"Soil treatment phytotoxicity, Cotton",[8]; [28],1
same,"Soil treatment phytotoxicity, Cotton",[8]; [29],0
same,pest or weed control at 50 g/ha,[9],60%
same,pest or weed control at 50 g/ha,[10]; Solanum nigrum,95%

# From patent US12495798B2, “Nicotinamide compound and herbicidal composition comprising compound” (KOREA RESEARCH INSTITUTE OF CHEMICAL TECHNOLOGY, priority 2019, dated 2025)
